Reference: US8536351B2, “2-aryl-5-heterocyclyl-cyclohexane-1,3,dione compounds and their use as herbicides” (Syngenta Crop Protection LLC, priority 2007, dated 2013)

Assays:
Assay type in all cases: in vivo
Lolium perenne (LOLPE) [1] = assay: Pre-emergence activity, glasshouse pot test (100=total damage to plant; 0=no damage to plant); details: rate 500 g/ha, evaluated 19, 20 or 21 days after spraying
Procedure: (§1) Monocotyledonous and dicotyledonous test plants were sown in standard soil in pots. After cultivation for one day (pre-emergence) or after 10 days cultivation (post-emergence) under controlled conditions in a glasshouse, the plants were sprayed with an aqueous spray solution derived from the formulation of the technical active ingredient in 0.6 ml acetone and 45 ml formulation solution containing 10.6% Emulsogen EL (Registry number 61791-12-6), 42.2% N-methyl pyrrolidone, 42.2% dipropylene glycol monomethyl ether (Registry number 34590-94-8) and 0.2% X-77 (Registry number 11097-66-8). The test plants were then grown in a greenhouse under optimum conditions until, 14 or 15 days later for post-emergence and 19, 20 or 21 days for pre-emergence, the test was evaluated (100=total damage to plant; 0=no damage to plant). Alopecurus myosuroides (ALOMY), Avena fatua (AVEFA), Lolium perenne (LOLPE), Setaria faberi (SETFA), Digitaria sanguinalis (DIGSA), Echinochloa crus-galli (ECHCG) Pre-Emergence Activity

[2] = test system: Alopecurus myosuroides (ALOMY); assay: as above; details: rate 500 g/ha, evaluated 19, 20 or 21 days after spraying
Procedure: as §1

Avena fatua (AVEFA) [3] = assay: as above; details: rate 500 g/ha, evaluated 19, 20 or 21 days after spraying
Procedure: as §1

[4] = test system: Digitaria sanguinalis (DIGSA); assay: as above; details: rate 500 g/ha, evaluated 19, 20 or 21 days after spraying
Procedure: as §1

Setaria faberi (SETFA) [5] = assay: as above; details: rate 500 g/ha, evaluated 19, 20 or 21 days after spraying
Procedure: as §1

[6] = test system: Echinochloa crus-galli (ECHCG); assay: as above; details: rate 500 g/ha, evaluated 19, 20 or 21 days after spraying
Procedure: as §1

Lolium perenne (LOLPE) [7] = assay: Post-emergence activity, glasshouse pot test (100=total damage to plant; 0=no damage to plant); details: 336 h, evaluated 14 or 15 days after spraying; for pest or weed control at 500 g/ha: rate 500 g/ha; for pest or weed control at 125 g/ha: rate 125 g/ha
Procedure: as §1, with “Post-Emergence” for “Pre-Emergence”

[8] = test system: Alopecurus myosuroides (ALOMY); assay: as above; details: 336 h, evaluated 14 or 15 days after spraying; for pest or weed control at 500 g/ha: rate 500 g/ha; for pest or weed control at 125 g/ha: rate 125 g/ha
Procedure: as §1, with “Post-Emergence” for “Pre-Emergence”

Avena fatua (AVEFA) [9] = assay: as above; details: 336 h, evaluated 14 or 15 days after spraying; for pest or weed control at 500 g/ha: rate 500 g/ha; for pest or weed control at 125 g/ha: rate 125 g/ha
Procedure: as §1, with “Post-Emergence” for “Pre-Emergence”

[10] = test system: Digitaria sanguinalis (DIGSA); assay: as above; details: evaluated 14 or 15 days after spraying; for pest or weed control at 500 g/ha: rate 500 g/ha; for pest or weed control at 125 g/ha: rate 125 g/ha
Procedure: as §1, with “Post-Emergence” for “Pre-Emergence”

Setaria faberi (SETFA) [11] = assay: as above; details: evaluated 14 or 15 days after spraying; for pest or weed control at 500 g/ha: rate 500 g/ha; for pest or weed control at 125 g/ha: rate 125 g/ha
Procedure: as §1, with “Post-Emergence” for “Pre-Emergence”

[12] = test system: Echinochloa crus-galli (ECHCG); assay: as above; details: evaluated 14 or 15 days after spraying; for pest or weed control at 500 g/ha: rate 500 g/ha; for pest or weed control at 125 g/ha: rate 125 g/ha
Procedure: as §1, with “Post-Emergence” for “Pre-Emergence”

Structure (SMILES) | pest or weed control at 500 g/ha (Lolium perenne (LOLPE) [1]) | pest or weed control at 500 g/ha [2] | pest or weed control at 500 g/ha (Avena fatua (AVEFA) [3]) | pest or weed control at 500 g/ha [4] | pest or weed control at 500 g/ha (Setaria faberi (SETFA) [5]) | pest or weed control at 500 g/ha [6] | pest or weed control at 500 g/ha (Lolium perenne (LOLPE) [7]) | pest or weed control at 500 g/ha [8] | pest or weed control at 500 g/ha (Avena fatua (AVEFA) [9]) | pest or weed control at 500 g/ha [10] | pest or weed control at 500 g/ha (Setaria faberi (SETFA) [11]) | pest or weed control at 500 g/ha [12] | pest or weed control at 125 g/ha (Lolium perenne (LOLPE) [7]) | pest or weed control at 125 g/ha [8] | pest or weed control at 125 g/ha (Avena fatua (AVEFA) [9]) | pest or weed control at 125 g/ha [10] | pest or weed control at 125 g/ha (Setaria faberi (SETFA) [11]) | pest or weed control at 125 g/ha [12]
CCc1ccc(-c2ccc(Cl)cc2)cc1C1=C(O)CC(C2CCOCC2)CC1=O (stereo not drawn) [Compound T8] | 80% | 100% | 60% | 100% | 100% | 100% | 100% | 80% | 70% | 90% | 90% | 90% | – | – | – | – | – | –
Cc1cc(C)c(C2=C(O)CC(C3CCSCC3)CC2=O)c(C)c1 (stereo not drawn) [Compound T15] | 80% | 60% | 60% | 70% | 90% | 20% | 60% | 60% | 20% | 80% | 90% | 70% | – | – | – | – | – | –
CCc1cc(C)cc(CC)c1C1=C(O)CC(C2CCC[S+]([O-])C2)CC1=O (stereo not drawn) [Compound T23] | 100% | 100% | 100% | 100% | 70% | 50% | – | – | – | – | – | – | 90% | 90% | 90% | 70% | 50% | 80%
CCc1cc(C)cc(CC)c1C1=C(O)CC(C2CCCS(=O)(=O)C2)CC1=O (stereo not drawn) [Compound T19] | 100% | 100% | 90% | 100% | 100% | 100% | 80% | 80% | 90% | 100% | 100% | 100% | – | – | – | – | – | –
Cc1ccc(-c2ccc(Cl)cc2)cc1C1=C(O)CC(C2CCOC2)CC1=O (stereo not drawn) [Compound T7] | 100% | 70% | 30% | 100% | 100% | 100% | 80% | 90% | 90% | 100% | 100% | 100% | – | – | – | – | – | –
CCc1cc(C)cc(C)c1C1=C(O)CC(C2CCSCC2)CC1=O (stereo not drawn) [Compound T21] | 40% | 40% | 70% | 100% | 100% | 100% | 70% | 80% | 70% | 80% | 90% | 100% | – | – | – | – | – | –
CCc1cc(C)cc(CC)c1C1=C(O)CC(C2CCCSC2)CC1=O (stereo not drawn) [Compound T13] | 100% | 90% | 80% | 100% | 100% | 100% | 100% | 100% | 100% | 90% | 100% | 90% | – | – | – | – | – | –
Cc1cc(C)c(C2=C(O)CC(C3CCS(=O)(=O)CC3)CC2=O)c(C)c1 (stereo not drawn) [Compound T17] | 0% | 20% | 70% | 60% | 50% | 60% | 0% | 20% | 20% | 90% | 90% | 90% | – | – | – | – | – | –
CCc1cc(C)cc(CC)c1C1=C(OC(C)=O)CC(C2CCCS(=O)(=O)C2)CC1=O (stereo not drawn) [Compound P2] | 80% | 90% | 100% | 100% | 100% | 100% | – | – | – | – | – | – | 0% | 10% | 20% | 90% | 20% | 20%
CCc1cc(C)cc(C)c1C1=C(O)CC(C2CCCSC2)CC1=O (stereo not drawn) [Compound T16] | 100% | 0% | 100% | 100% | 100% | 100% | 90% | 100% | 80% | 100% | 100% | 90% | – | – | – | – | – | –
